Legend:
Experiment in all cases: relative viability (nuclei count vs DMSO), 5 days (fraction); higher = more cells survive
GSK126 + Luminespib = compound: CC[C@H](C)N1C=C(C2=C(C=C(C=C21)C3=CN=C(C=C3)N4CCNCC4)C(=O)NCC5=C(C=C(NC5=O)C)C)C [GSK126] + CCNC(=O)c1noc(-c2cc(C(C)C)c(O)cc2O)c1-c1ccc(CN2CCOCC2)cc1 [Luminespib] (partner 0.01 µM)
In short: (§1)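 Relative viability divides the nuclei count in treated wells by that in vehicle wells. Lung cancer cell lines were seeded in 1536-well plates, dosed by pin tool the next day, and fixed and stained after 5 days in one step with final 0.05% Triton X-100, 1% formaldehyde and 1 ug/ml Hoechst. Dosing was a single drug or a fixed anchor-drug dose plus five library-drug doses (not always all listed) in √10 steps, and values are medians of duplicate plates imaged at 4×.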

GSK126 + Olaparib = compound: CC[C@H](C)N1C=C(C2=C(C=C(C=C21)C3=CN=C(C=C3)N4CCNCC4)C(=O)NCC5=C(C=C(NC5=O)C)C)C [GSK126] + O=C(c1cc(Cc2n[nH]c(=O)c3ccccc23)ccc1F)N1CCN(C(=O)C2CC2)CC1 [Olaparib] (partner 8 µM)
In short: as §1

MLN4924 + Lapatinib = compound: NS(=O)(=O)OC[C@@H]1C[C@@H](n2ccc3c(N[C@H]4CCc5ccccc54)ncnc32)C[C@@H]1O [MLN4924] + CS(=O)(=O)CCNCc1ccc(-c2ccc3ncnc(Nc4ccc(OCc5cccc(F)c5)c(Cl)c4)c3c2)o1 [Lapatinib] (partner 2 µM)
In short: as §1

MLN4924 + Decitabine = compound: NS(=O)(=O)OC[C@@H]1C[C@@H](n2ccc3c(N[C@H]4CCc5ccccc54)ncnc32)C[C@@H]1O [MLN4924] + Nc1ncn([C@H]2C[C@H](O)[C@@H](CO)O2)c(=O)n1 [Decitabine] (partner 2 µM)
In short: as §1

Cell Line | relative viability (GSK126 + Luminespib; first compound 0.08 µM) | relative viability (GSK126 + Luminespib; first compound 0.253 µM) | relative viability (GSK126 + Luminespib; first compound 0.8 µM) | relative viability (GSK126 + Luminespib; first compound 2.53 µM) | relative viability (GSK126 + Luminespib; first compound 8 µM) | relative viability (GSK126 + Olaparib; first compound 0.08 µM) | relative viability (GSK126 + Olaparib; first compound 0.253 µM) | relative viability (GSK126 + Olaparib; first compound 0.8 µM) | relative viability (GSK126 + Olaparib; first compound 2.53 µM) | relative viability (GSK126 + Olaparib; first compound 8 µM) | relative viability (MLN4924 + Lapatinib; first compound 0.04 µM) | relative viability (MLN4924 + Lapatinib; first compound 0.1265 µM) | relative viability (MLN4924 + Lapatinib; first compound 0.4 µM) | relative viability (MLN4924 + Lapatinib; first compound 1.265 µM) | relative viability (MLN4924 + Lapatinib; first compound 4 µM) | relative viability (MLN4924 + Decitabine; first compound 0.04 µM) | relative viability (MLN4924 + Decitabine; first compound 0.1265 µM) | relative viability (MLN4924 + Decitabine; first compound 0.4 µM) | relative viability (MLN4924 + Decitabine; first compound 1.265 µM) | relative viability (MLN4924 + Decitabine; first compound 4 µM)
NCI-H2126 | 1 | 0.924 | 0.873 | 0.972 | 0.734 | 0.963 | 0.957 | 0.884 | 0.916 | 0.915 | 0.724 | 0.762 | 0.406 | 0.241 | 0.261 | 0.526 | 0.49 | 0.425 | 0.293 | 0.231
NCI-H2170 | 0.655 | 0.924 | 0.595 | 0.546 | 0.722 | 0.603 | 0.669 | 0.559 | 0.54 | 0.529 | 0.258 | 0.301 | 0.25 | 0.208 | 0.228 | 0.444 | 0.249 | 0.273 | 0.167 | 0.144
NCI-H2347 | 0.757 | 0.701 | 0.308 | 0.392 | 0.267 | 0.562 | 0.524 | 0.529 | 0.581 | 0.62 | 0.746 | 0.897 | 0.487 | 0.338 | 0.412 | 0.623 | 0.694 | 0.495 | 0.413 | 0.335
NCI-H2405 | 0.946 | 0.74 | 0.711 | 0.695 | 0.604 | 0.887 | 0.84 | 0.844 | 0.89 | 0.744 | 1.26 | 1.05 | 0.511 | 0.192 | 0.195 | 0.659 | 0.483 | 0.406 | 0.28 | 0.28
NCI-H3122 | 0.0614 | 0.0957 | 0.0787 | 0.0846 | 0.103 | 0.713 | 0.712 | 0.628 | 0.654 | 0.628 | 0.991 | 0.629 | 0.293 | 0.177 | 0.206 | 0.423 | 0.264 | 0.2 | 0.14 | 0.125
PC-3 [JPC-3] | 0.75 | 0.728 | 0.745 | 0.708 | 0.734 | 1.1 | 1.14 | 1.09 | 1.15 | 1.12 | 0.478 | 0.51 | 0.277 | 0.261 | 0.262 | 0.808 | 0.83 | 0.408 | 0.46 | 0.451
PC-14 | 0.163 | 0.144 | 0.174 | 0.155 | 0.114 | 0.348 | 0.295 | 0.335 | 0.354 | 0.396 | 0.382 | 0.655 | 0.395 | 0.157 | 0.136 | 0.275 | 0.177 | 0.105 | 0.0656 | 0.104
RERF-LC-KJ | 1.22 | 1.09 | 1.31 | 1.3 | 1.16 | 0.935 | 0.979 | 1.04 | 0.826 | 0.83 | 0.746 | 0.555 | 0.227 | 0.191 | 0.221 | 0.592 | 0.497 | 0.24 | 0.182 | 0.236
SK-LU-1 | 0.194 | 0.192 | 0.215 | 0.182 | 0.214 | 0.555 | 0.452 | 0.45 | 0.396 | 0.482 | 0.703 | 0.491 | 0.299 | 0.19 | 0.181 | 0.645 | 0.661 | 0.309 | 0.29 | 0.24
SK-MES-1 | 0.856 | 0.76 | 0.823 | 0.866 | 0.908 | 0.798 | 0.787 | 0.721 | 0.724 | 0.657 | 0.534 | 0.722 | 0.486 | 0.281 | 0.212 | 0.405 | 0.339 | 0.233 | 0.16 | 0.205
SW 1573 | 0.424 | 0.374 | 0.196 | 0.43 | 0.16 | 0.609 | 0.542 | 0.582 | 0.621 | 0.49 | 0.781 | 1.1 | 0.565 | 0.13 | 0.114 | 0.525 | 0.313 | 0.158 | 0.0741 | 0.0974
